From patent US20150057357A1, “BIS (THIOHYDRAZIDE AMIDE) COMPOUNDS FOR TREATING CANCERS” (The Board of Trustees of The Leland Stanford Junior …, priority 2012, published 2015)

Legend:
[1] = system: basal-like breast cancer cells (BT549, HCC1806, MDAMB468); assay: MTT drug sensitivity assay, basal-like breast cancer cells; type: cell-based, human
Excerpt: (§1) Human breast cell lines represented the normal breast (MCF12A), basal-like breast cancer (BT549, HCC1806, MDAMB468), BRCA1-mutated breast cancer (HCC1937, SUM149PT, SUM1315MO2), and luminal breast cancer (BT474, MDAMB361, and T47D). Stable cell lines expressing shRNA to hOGG1 (shOGG1) or a non-targeting control (shCTRL) and BRCA1^+/+ and BRCA1^−/− mouse mammary epithelial cells have been previously described (E. Alli, V. B. Sharma, P. Sunderesakumar, J. M. Ford, Defective repair of oxidative dna damage in triple-negative breast cancer confers sensitivity to inhibition of poly(ADP-ribose) polymerase, Cancer Res, 69, 2009, 3589-3596). All cell lines were maintained at 37° C. and 5% CO2.
(§2) Cells were exposed to increasing concentrations of elesclomol and incubated at 37° C. in the presence of 5% CO2 for 96 hours. Cellular sensitivity was then determined by MTT assay and expressed as a percentage of the vehicle control (DMSO). Each data point represents the average of quadruplicate determinations +/−S.D. Images were obtained under 10× objective and are representative.
(§3) Cell lines that represent the normal breast or BRCA1-mutated, basal-like or luminal breast cancers were examined for sensitivity to elesclomol. Shown in FIG. 1 are images of BRCA-1 mutated, basal-like or luminal breast cancer cell cultures after treatment with 0 μM, 0.2 μM or 1 μM elesclomol. […]

[2] = system: normal breast cells (MCF12A); assay: MTT drug sensitivity assay, normal breast cells; type: cell-based, human; conditions: concentrations of up to 1 μM, 96 hours, FIG. 2
Excerpt: as §1, §2, §3

[3] = system: BRCA1-mutated breast cancer cells (HCC1937, SUM149PT, SUM1315MO2); assay: MTT drug sensitivity assay, BRCA1-mutated breast cancer cells; type: cell-based, human
Excerpt: as §1, §2, §3

[4] = system: cell lines deficient in the hOOG1 DNA glycosylase (shOGG1-A and sh-OGG1-B); assay: MTT drug sensitivity assay, base excision repair deficient cells; type: cell-based; conditions: shOGG1-A and sh-OGG1-B versus isogenic controls shCTRL-A and shCTRL-B; FIG. 3
Excerpt: as §1, §2
Two different cell lines deficient in the hOOG1 DNA glycosylase that initiates base excision repair (shOGG1-A and sh-OGG1-B) and their isogenic control cells lines (shCTRL-A and shCTRL-B) were examined for sensitivity to elesclomol.

[5] = system: luminal breast cancer cells (BT474, MDAMB361, T47D); assay: MTT drug sensitivity assay, luminal breast cancer cells; type: cell-based, human; conditions: concentrations of up to 1 μM, 96 hours, FIG. 2
Excerpt: as §1, §2, §3

Compound: CN(NC(=O)CC(=O)NN(C)C(=S)c1ccccc1)C(=S)c1ccccc1 [elesclomol]
- sensitivity to elesclomol (cellular viability dose-response) ([1]; basal-like breast cancers compared to normal breast cells or luminal breast cancer cells, FIG. 1, FIG. 2): increased sensitivity
- induced cell death ([1]; concentrations of up to 1 μM, 96 hours, basal-like breast cancer cells, FIG. 2): up to 75%
- effect of treatment on cells (cell death) [2]: remained unaffected
- sensitivity to elesclomol (cellular viability dose-response) ([3]; BRCA1-mutated breast cancers compared to normal breast cells or luminal breast cancer cells, FIG. 1, FIG. 2): increased sensitivity
- induced cell death ([3]; concentrations of up to 1 μM, 96 hours, BRCA1-mutated breast cancer cells, FIG. 2): up to 95%
- sensitivity to elesclomol (cell viability, MTT) [4]: increased sensitivity
- effect of treatment on cells (cell death) [5]: remained unaffected
